The supplement of paper PMC6045584
± gives the standard deviation of the averaged measurements.

Assays:
AFIMOXIFENE = compound: CC/C(=C(\c1ccc(O)cc1)c1ccc(OCCN(C)C)cc1)c1ccccc1 [AFIMOXIFENE]; experiment: surviving fraction relative to DMSO-only wells; higher = less growth inhibition; conditions: exposure time: 5 days
Summary of the method: (§1)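 Log-phase tumour cell lines were seeded at 250–500 cells per well in 384-well plates. After 24 hours they were exposed continuously for five days to inhibitors at 0.5, 1, 5, 10, 50, 100, 500 and 1000 nM. Viability was read by CellTiter-Glo luminescence after 10 minutes at room temperature, and surviving fraction is luminescence normalised to the median of DMSO-only wells. Each line was screened three times and kept only if replicate Pearson r >0.7 and median Z' >0.3.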

[1] = compound: C[C@@H]1CN(CC(=O)Nc2ccc3c(c2)Cc2cccc(-c4cc(=O)cc(N5CCOCC5)o4)c2S3)C[C@H](C)O1; experiment: as above; conditions: exposure time: 5 days
Summary of the method: as §1

| Test System | surviving fraction (AFIMOXIFENE; 0.5 nM) | surviving fraction (AFIMOXIFENE; 1 nM) | surviving fraction (AFIMOXIFENE; 5 nM) | surviving fraction (AFIMOXIFENE; 10 nM) | surviving fraction (AFIMOXIFENE; 50 nM) | surviving fraction (AFIMOXIFENE; 100 nM) | surviving fraction (AFIMOXIFENE; 500 nM) | surviving fraction (AFIMOXIFENE; 1000 nM) | surviving fraction ([1]; 0.5 nM) | surviving fraction ([1]; 1 nM) | surviving fraction ([1]; 5 nM) | surviving fraction ([1]; 10 nM) | surviving fraction ([1]; 50 nM) | surviving fraction ([1]; 100 nM) | surviving fraction ([1]; 500 nM) | surviving fraction ([1]; 1000 nM) |
| --- | --- | --- | --- | --- | --- | --- | --- | --- | --- | --- | --- | --- | --- | --- | --- | --- |
| U2OS BONE | 1.06 ± 0.056 | 1.07 ± 0.035 | 1.08 ± 0.024 | 1.1 ± 0.022 | 1.12 ± 0.015 | 1.1 ± 0.017 | 1.08 ± 0.057 | 1.01 ± 0.021 | 1.06 ± 0.052 | 1.09 ± 0.057 | 1.08 ± 0.029 | 1.08 ± 0.025 | 1.1 ± 0.058 | 1.09 ± 0.061 | 1.03 ± 0.048 | 1.02 ± 0.05 |
| SKBR3 BREAST | 1.16 ± 0.077 | 1.1 ± 0.16 | 1.16 ± 0.11 | 1.12 ± 0.16 | 1.17 ± 0.13 | 1.06 ± 0.19 | 1.16 ± 0.12 | 0.923 ± 0.12 | 1.06 ± 0.013 | 0.979 ± 0.19 | 0.937 ± 0.22 | 0.939 ± 0.088 | 0.9 ± 0.16 | 1.05 ± 0.13 | 0.886 ± 0.07 | 0.61 ± 0.033 |
| SAOS2 BONE | 1.18 ± 0.064 | 1.14 ± 0.068 | 1.23 ± 0.051 | 1.18 ± 0.052 | 1.21 ± 0.034 | 1.2 ± 0.16 | 1.12 ± 0.14 | 0.985 ± 0.042 | 1.08 ± 0.037 | 1.01 ± 0.018 | 1.07 ± 0.021 | 1.1 ± 0.051 | 0.895 ± 0.057 | 0.977 ± 0.12 | 0.8487 ± 0.0063 | 0.774 ± 0.01 |
| 22RV1 PROSTATE | 1.06 ± 0.088 | 1.04 ± 0.089 | 1.09 ± 0.054 | 1.09 ± 0.016 | 1.1 ± 0.048 | 1.06 ± 0.08 | 1.13 ± 0.056 | 1.04 ± 0.079 | 1.07 ± 0.068 | 1.07 ± 0.021 | 1.02 ± 0.045 | 1.04 ± 0.044 | 1.12 ± 0.07 | 1.12 ± 0.074 | 1.08 ± 0.09 | 1.08 ± 0.031 |
| CAL51 BREAST | 0.988 ± 0.042 | 0.966 ± 0.054 | 1.05 ± 0.1 | 0.984 ± 0.029 | 1.04 ± 0.046 | 1.05 ± 0.028 | 1.08 ± 0.036 | 0.969 ± 0.028 | 0.954 ± 0.023 | 0.939 ± 0.028 | 1.02 ± 0.019 | 0.997 ± 0.069 | 1.01 ± 0.028 | 1.02 ± 0.027 | 0.922 ± 0.011 | 0.851 ± 0.026 |
| OSHN BONE | 1.09 ± 0.044 | 1.08 ± 0.023 | 1.1 ± 0.035 | 1.07 ± 0.034 | 1.12 ± 0.016 | 1.146 ± 0.0071 | 1.15 ± 0.016 | 1.1 ± 0.031 | 1.06 ± 0.017 | 1.06 ± 0.029 | 1.09 ± 0.016 | 1.07 ± 0.025 | 1.017 ± 0.0072 | 1.021 ± 0.0095 | 1.01 ± 0.019 | 0.977 ± 0.0061 |
| A549 LUNG | 1.07 ± 0.021 | 1.065 ± 0.0068 | 1.06 ± 0.022 | 1.08 ± 0.013 | 1.05 ± 0.023 | 1.1 ± 0.03 | 1.09 ± 0.022 | 1.11 ± 0.032 | 1.05 ± 0.049 | 1.05 ± 0.025 | 1.08 ± 0.02 | 1.08 ± 0.021 | 1.07 ± 0.012 | 1.098 ± 0.0099 | 1.1 ± 0.016 | 1.13 ± 0.032 |
| SUM149 BREAST | 1.12 ± 0.094 | 1.02 ± 0.1 | 1.03 ± 0.078 | 1.03 ± 0.14 | 0.861 ± 0.031 | 0.911 ± 0.076 | 1.01 ± 0.11 | 0.868 ± 0.032 | 0.874 ± 0.049 | 0.885 ± 0.1 | 0.96 ± 0.089 | 0.862 ± 0.035 | 1.01 ± 0.017 | 0.917 ± 0.029 | 0.819 ± 0.11 | 0.667 ± 0.024 |
| SUM44 BREAST | 1.17 ± 0.34 | 1.22 ± 0.34 | 1.2 ± 0.26 | 1.2 ± 0.39 | 1.3 ± 0.43 | 1.19 ± 0.36 | 1.13 ± 0.29 | 1.08 ± 0.32 | 0.936 ± 0.036 | 0.936 ± 0.034 | 0.977 ± 0.028 | 0.968 ± 0.023 | 0.911 ± 0.044 | 0.915 ± 0.067 | 0.898 ± 0.083 | 0.892 ± 0.031 |
| BT549 BREAST | 0.924 ± 0.072 | 1.01 ± 0.1 | 1.01 ± 0.12 | 0.926 ± 0.082 | 0.93 ± 0.046 | 1.04 ± 0.013 | 1.07 ± 0.14 | 0.865 ± 0.052 | 1.1 ± 0.25 | 0.918 ± 0.16 | 0.996 ± 0.083 | 1.08 ± 0.11 | 0.738 ± 0.14 | 0.741 ± 0.14 | 0.774 ± 0.14 | 0.658 ± 0.27 |
| YAMATO SYNOVIAL | 1.22 ± 0.14 | 1.27 ± 0.022 | 1.37 ± 0.14 | 1.4 ± 0.037 | 1.23 ± 0.14 | 1.28 ± 0.096 | 1.23 ± 0.066 | 1.31 ± 0.14 | 1.41 ± 0.1 | 1.44 ± 0.13 | 1.38 ± 0.1 | 1.46 ± 0.03 | 0.925 ± 0.031 | 0.965 ± 0.046 | 0.884 ± 0.14 | 0.855 ± 0.045 |
| VP229 BREAST | 1.25 ± 0.37 | 1.2 ± 0.13 | 1.09 ± 0.08 | 1.16 ± 0.13 | 1.14 ± 0.07 | 1.16 ± 0.061 | 0.989 ± 0.21 | 1 ± 0.13 | 1.03 ± 0.15 | 1.07 ± 0.05 | 1.09 ± 0.14 | 1.06 ± 0.07 | 0.9067 ± 0.0046 | 0.916 ± 0.14 | 1.11 ± 0.062 | 0.897 ± 0.075 |
| SJSA1 BONE | 1.6 ± 0.021 | 1.74 ± 0.059 | 1.65 ± 0.083 | 1.74 ± 0.087 | 1.78 ± 0.027 | 1.52 ± 0.05 | 1.79 ± 0.059 | 1.27 ± 0.068 | 0.993 ± 0.05 | 1.04 ± 0.03 | 1.05 ± 0.029 | 1.06 ± 0.061 | 1 ± 0.017 | 1.05 ± 0.026 | 0.9383 ± 0.0074 | 0.892 ± 0.034 |
| SCC90 HEADNECK | 1.14 ± 0.052 | 1.12 ± 0.11 | 1.1 ± 0.045 | 1.19 ± 0.068 | 1.12 ± 0.074 | 1.09 ± 0.059 | 1.11 ± 0.025 | 1.05 ± 0.075 | 1.01 ± 0.16 | 1.03 ± 0.11 | 1.07 ± 0.027 | 1.12 ± 0.033 | 1.02 ± 0.042 | 0.952 ± 0.077 | 0.963 ± 0.03 | 0.971 ± 0.12 |
| KPD BONE | 1.03 ± 0.043 | 1.03 ± 0.022 | 1.14 ± 0.088 | 1.07 ± 0.043 | 1.132 ± 0.011 | 1.1 ± 0.04 | 0.976 ± 0.049 | 0.83 ± 0.035 | 0.979 ± 0.039 | 0.946 ± 0.05 | 1.02 ± 0.047 | 1.01 ± 0.068 | 1 ± 0.092 | 1.01 ± 0.049 | 0.865 ± 0.02 | 0.7 ± 0.034 |
| SG32 HEADNECK | 1.09 ± 0.33 | 1.93 ± 1.3 | 1.26 ± 0.11 | 1.18 ± 0.25 | 1.09 ± 0.093 | 0.982 ± 0.053 | 1.12 ± 0.087 | 1.21 ± 0.2 | 1.16 ± 0.16 | 1.07 ± 0.2 | 1.12 ± 0.18 | 1.62 ± 0.39 | 0.939 ± 0.091 | 1.05 ± 0.047 | 0.74 ± 0.11 | 0.681 ± 0.082 |
